The results in this text go back to publication PMC8318836 (Bioorganic Chemistry, 2021).

Where only a bound is given, the exact number is not on record here.

The subject of data set [1] is SARS-CoV-2 pseudovirus. The data set is classed as cell-based. As to conditions: for EC50: read-out: EC50-SARS-CoV-2.
The test system of the next data set is VSV G pseudovirus. The format is cell-based, vesicular stomatitis virus (VSV). The conditions noted are these: read-out: EC50-VSV.
The next data set concerns Huh 7 cells. The conditions noted are these: concentration of 50% cellular toxicity in Huh 7 cells.
In data set [2] the test system is SARS-CoV-2 pseudovirus. Briefly: Single-cycle time-of-addition experiment on SARS-CoV-2 pseudovirus. The data set is classed as cell-based. The conditions noted are these: 25 µM, Huh 7 cells.

The term EC50 denotes the midpoint of the concentration-response curve. As usually defined, the CC50 is the concentration at which the toxic effect on the cells reaches its halfway point. Low readings indicate greater toxicity to the cells, high ones lower toxicity to the cells. For the compound `O=C(CNc1ccc2ccccc2c1)N1CCCC2=CC3CC(CN4CCCCC34)C21` (stereo not shown) [14q, 12N-N′-(2-Naphthylamino)acetyl aloperine], the EC50 in the data set on SARS-CoV-2 pseudovirus [1] was determined as 87.2 µM; with VSV G pseudovirus it was 108 µM. The same compound displayed a CC50 in the data set with Huh 7 cells of 224 µM.
The corresponding values for `O=C(CN1CCCC2=CC3CC(C4CCCCN4C3)C21)Nc1cc(Br)ccc1Cl` (stereo not shown) [11g, 12N-N′-(5-Bromo-2-chlorophenyl)carbamoylmethyl aloperine] are 90.3 µM, 77.5 µM and above 267 µM.
For `O=C(CNc1ccc(Br)cc1)N1CCCC2=CC3CC(CN4CCCCC34)C21` (stereo not shown) [14e, 12N-N′-p-Bromophenylaminoacetyl aloperine] the same measures were 37.3 µM, 85.4 µM and 180 µM.
For `O=C(CN1CCCC2=CC3CC(CN4CCCCC34)C21)Nc1ccc(I)cc1` (stereo not shown) [11c, 12N-N′-p-Iodophenylcarbamoylmethyl aloperine], the EC50 with SARS-CoV-2 pseudovirus [1] was found to be 29.5 µM; in the data set with VSV G pseudovirus it was 47.8 µM. In addition, the CC50 in the data set with Huh 7 cells amounted to 124 µM.
`O=C(CN1CCCC2=CC3CC(C4CCCCN4C3)C21)Nc1cc(Cl)cc(C(F)(F)F)c1` (stereo not shown) [11k, 12N-N′-(3-Chloro-5-trifluoromethylphenyl)carbamoylmethyl aloperine]: in the data set on SARS-CoV-2 pseudovirus [1], the “anti-SARS-CoV-2 activity compared to lead 1” value is listed as “slightly elevated activity” and the concentration giving a half-maximal response (EC50) was determined as 10.4 µM. Besides, the EC50 in the data set on VSV G pseudovirus came out at 17.5 µM. The compound further had a CC50 with Huh 7 cells of 57.1 µM.
For `Cc1cc(C)cc(NCC(=O)N2CCCC3=CC4CC(CN5CCCCC45)C32)c1` (stereo not shown) [14m, 12N-N′-(3,5-Dimethylphenylamino)acetyl aloperine], the EC50 with SARS-CoV-2 pseudovirus [1] and in the data set with VSV G pseudovirus was above 267 µM in each case. Further, in the data set on Huh 7 cells, the CC50 is above 267 µM.
Turning to `COc1cc(NCC(=O)N2CCCC3=CC4CC(CN5CCCCC45)C32)cc(OC)c1` (stereo not shown) [14n, 12N-N′-(3,5-Dimethoxyphenylamino)acetyl aloperine], the EC50 in the data set on SARS-CoV-2 pseudovirus [1] and in the data set on VSV G pseudovirus was above 267 µM in each case. This compound also returned a CC50 in the data set on Huh 7 cells above 267 µM.
As for `O=C(CNc1cccc2ccccc12)N1CCCC2=CC3CC(C4CCCCN4C3)C21` (stereo not shown) [14p, 12 N-N′-(1-Naphthylamino)acetyl aloperine], the results for the EC50 in the data set on SARS-CoV-2 pseudovirus [1] and in the data set on VSV G pseudovirus were 73.6 µM and 125 µM, respectively. Half-maximal cytotoxicity in the data set with Huh 7 cells (CC50) was put at 199 µM.
Take `COc1cccc(NCC(=O)N2CCCC3=CC4CC(C5CCCCN5C4)C32)c1` (stereo not shown) [14i, 12N-N′-m-Methoxyphenylaminoacetyl aloperine]: the EC50 in the data set with SARS-CoV-2 pseudovirus [1] and in the data set with VSV G pseudovirus was above 267 µM throughout. The same compound yielded a CC50 with Huh 7 cells above 267 µM.
As for `CCCNC(=O)[C@H]1O[C@@H]1C(=O)N[C@H](C(=O)N1CCC[C@H]1C(=O)O)[C@@H](C)CC` [CA-074, reference compound], the EC50 with SARS-CoV-2 pseudovirus [1] was determined as 2.7 µM; with VSV G pseudovirus it was 10.5 µM. For the same compound, in the data set with SARS-CoV-2 pseudovirus [2] (added 1 h post infection), the “inhibition rate, process d” value is given as 93%. Also, in the data set on SARS-CoV-2 pseudovirus [2] (added during pseudovirus infection at 0 °C), the “inhibition rate, process b” value came out at 77%. Moreover, the “inhibition rate, process a” value with SARS-CoV-2 pseudovirus [2] (added during pseudovirus infection at 37 °C) turned out to be 87%. Half-maximal cytotoxicity with Huh 7 cells (CC50) was put at 231 µM.
Take `O=C(CN1CCCC2=CC3CC(C4CCCCN4C3)C21)Nc1ccc(Cl)cc1Cl` (stereo not shown) [11d, 12N-N′-(2,4-Dichlorophenyl)carbamoylmethyl aloperine]: the EC50 in the data set on SARS-CoV-2 pseudovirus [1] worked out at 54.8 µM; in the data set with VSV G pseudovirus, 70.5 µM. In the data set with Huh 7 cells, the CC50 amounted to 167 µM.
Consider `O=C(CNc1cccc(C(F)(F)F)c1)N1CCCC2=CC3CC(CN4CCCCC34)C21` (stereo not shown) [14h, 12N-N′-m-Trifluoromethylphenylaminoacetyl aloperine], for which the EC50 was 69.2 µM in the data set on SARS-CoV-2 pseudovirus [1] and 134 µM in the data set with VSV G pseudovirus. In the data set on Huh 7 cells, this compound showed a half-maximal cytotoxic concentration (CC50) above 267 µM.
For `O=C(Nc1cc(C(F)(F)F)cc(C(F)(F)F)c1)N1CCCC2=CC3CC(CN4CCCCC34)C21` (stereo not shown) [15c, 12N-N′-(3,5-Ditrifluoromethylphenyl)carbamoyl aloperine] the same measures were 11.5 µM, 14.9 µM and 53.9 µM.
The corresponding values for `O=C(CNc1ccc(Cl)cc1)N1CCCC2=CC3CC(CN4CCCCC34)C21` (stereo not shown) [14d, 12N-N′-p-Chlorophenylaminoacetyl aloperine] are 61.3 µM, 163 µM and above 267 µM.
The corresponding values for `Cc1cc(Cl)ccc1NC(=O)CN1CCCC2=CC3CC(C4CCCCN4C3)C21` (stereo not shown) [11j, 12N-N′-(4-Chloro-2-methylphenyl)carbamoylmethyl aloperine] are 107 µM, 75.1 µM and above 267 µM.
Consider `O=C(CN1CCCC2=CC3CC(C4CCCCN4C3)C21)Nc1ccc2ccccc2c1` (stereo not shown) [11p, 12N-N′-(2-Naphthyl)carbamoylmethyl aloperine], for which the EC50 worked out at 37.1 µM in the data set on SARS-CoV-2 pseudovirus [1] and 43.5 µM in the data set on VSV G pseudovirus. In the data set with Huh 7 cells, this compound gave a cytotoxic concentration (CC50) of 96.7 µM.
Consider `O=C(CNc1ccc(Cl)cc1Cl)N1CCCC2=CC3CC(CN4CCCCC34)C21` (stereo not shown) [14k, 12N-N′-(2,4-Dichlorophenylamino)acetyl aloperine], for which the EC50 worked out at 17.8 µM with SARS-CoV-2 pseudovirus [1] and 36.2 µM in the data set on VSV G pseudovirus. The compound further yielded a CC50 in the data set with Huh 7 cells of 65.8 µM.
The corresponding values for `O=C(CNc1ccccc1)N1CCCC2=CC3CC(CN4CCCCC34)C21` (stereo not shown) [14a, 12N-N′-Phenylaminoacetyl aloperine] are above 267 µM, above 267 µM and above 267 µM.
For `O=C(CNc1cc(C(F)(F)F)cc(C(F)(F)F)c1)N1CCCC2=CC3CC(CN4CCCCC34)C21` (stereo not shown) [14o, 12N-N′-(3,5-Ditrifluoromethylphenylamino)acetyl aloperine] the same measures were 37.6 µM, 48.3 µM and 113 µM.
For `O=C(Nc1ccc(F)cc1F)N1CCCC2=CC3CC(CN4CCCCC34)C21` (stereo not shown) [15a, 12N-N′-(2,4-Difluorophenyl)carbamoyl aloperine], the concentration for a half-maximal effect (EC50) in the data set on SARS-CoV-2 pseudovirus [1] came out at 195 µM; in the data set with VSV G pseudovirus it was 139 µM. In the data set on Huh 7 cells, this compound had a CC50 above 267 µM.
`O=C(CN1CCCC2=CC3CC(CN4CCCCC34)C21)Nc1cc(C(F)(F)F)cc(C(F)(F)F)c1` (stereo not shown) [11o, 12N-N′-(3,5-Ditrifluoromethylphenyl)carbamoylmethyl aloperine]: the values for the EC50 in the data set on SARS-CoV-2 pseudovirus [1] and in the data set with VSV G pseudovirus were 17 µM and 21.9 µM, respectively. Further, the CC50 with Huh 7 cells was found to be 71 µM.
Consider `O=C(CNc1ccc(Cl)c(Cl)c1)N1CCCC2=CC3CC(C4CCCCN4C3)C21` (stereo not shown) [14l, 12N-N′-(3,4-Dichlorophenylamino)acetyl aloperine], for which the EC50 in the data set with SARS-CoV-2 pseudovirus [1] was 15.8 µM; in the data set with VSV G pseudovirus it was 35.9 µM. In the data set with Huh 7 cells, this compound displayed a CC50 of 63 µM.
For `O=C(CNc1ccc(F)cc1)N1CCCC2=CC3CC(CN4CCCCC34)C21` (stereo not shown) [14b, 12N-N′-p-Fluorophenylaminoacetyl aloperine] the same measures were 177 µM, above 267 µM and above 267 µM.
For `Cc1ccc(NC(=O)CN2CCCC3=CC4CC(CN5CCCCC45)C32)cc1C` (stereo not shown) [11n, 12N-N′-(3,4-Dimethylphenyl)carbamoylmethyl aloperine] the same measures were 70.8 µM, 108 µM and above 267 µM.
The corresponding values for `O=C(CN1CCCC2=CC3CC(CN4CCCCC34)C21)Nc1ccc2ccccc2n1` (stereo not shown) [11q, 12N-N′-(2-Quinolyl)carbamoylmethyl aloperine] are 67.4 µM, 120 µM and above 267 µM.
